According to PubChem BioAssay AID1963870 (Molecular Pharmacology Branch, DTP, NCI, 2024):

Test system: 292921-168-R-J2-PDC KRAS tumor spheroid viability
Assay: Anticancer human tumor 292921-168-R-J2-PDC patient-derived pancreatic carcinoma cell line growth inhibition [KRAS2]
Conditions: spheroids with HUVEC and MSC; for IC50: curve of first compound; for viability, T/C: stronger effect = lower value
Summary of the method: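 Combination screen of spheroid viability in tumor-cell co-cultures with endothelial (HUVEC) and mesenchymal stem cell stroma. Each agent was tested in half-log dilutions, topping at clinical Cmax or at 10 microM without a known Cmax.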
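Further: drug exposure lasted seven days after spheroids formed for three days.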
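Wherever viability, T/C is given: percent of DMSO vehicle control viability which is 100%.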

Compound `CC(C)n1nc(-c2ccc3oc(N)nc3c2)c2c(N)ncnc21` + C=CC(=O)N1CCN(c2nc(OCC3CCCN3C)nc3c2CCN(c2cccc4cccc(C)c24)C3)CC1CC#N has an IC50 (second compound 0.0316 µM) of 2.49 nM, an IC50 (second compound 0.1 µM) of 2.84 nM and an IC50 (second compound 0.316 µM) of 1.07 nM. The IC50 (second compound 1 µM) was under 0.316 nM, the IC50 (second compound 3.16 µM) was under 0.316 nM and the viability, T/C (second compound 0.0316 µM, first compound 0.000316 µM) was 78.8%. It also gave a viability, T/C (second compound 0.0316 µM, first compound 0.001 µM) of 62.7%, a viability, T/C (second compound 0.0316 µM, first compound 0.00316 µM) of 48.3% and a viability, T/C (second compound 0.0316 µM, first compound 0.01 µM) of 30.8%. For the same compound, the viability, T/C (second compound 0.0316 µM, first compound 0.0316 µM) was 25.3%, the viability, T/C (second compound 0.0316 µM, first compound 0.1 µM) was 21.1% and the viability, T/C (second compound 0.1 µM, first compound 0.000316 µM) was 83.3%. The viability, T/C (second compound 0.1 µM, first compound 0.001 µM) was 70.8%, the viability, T/C (second compound 0.1 µM, first compound 0.00316 µM) was 47.3% and the viability, T/C (second compound 0.1 µM, first compound 0.01 µM) was 31%. For the same compound, the viability, T/C (second compound 0.1 µM, first compound 0.0316 µM) was 21.4%, the viability, T/C (second compound 0.1 µM, first compound 0.1 µM) was 20.9% and the viability, T/C (second compound 0.316 µM, first compound 0.000316 µM) was 70.2%. For the same compound, the viability, T/C (second compound 0.316 µM, first compound 0.001 µM) was 50.5%, the viability, T/C (second compound 0.316 µM, first compound 0.00316 µM) was 36.9% and the viability, T/C (second compound 0.316 µM, first compound 0.01 µM) was 28.6%. For the same compound, the viability, T/C (second compound 0.316 µM, first compound 0.0316 µM) was 21.6%, the viability, T/C (second compound 0.316 µM, first compound 0.1 µM) was 18.5% and the viability, T/C (second compound 1 µM, first compound 0.000316 µM) was 30.9%. It also gave a viability, T/C (second compound 1 µM, first compound 0.001 µM) of 25.5%, a viability, T/C (second compound 1 µM, first compound 0.00316 µM) of 23.8% and a viability, T/C (second compound 1 µM, first compound 0.01 µM) of 17.8%. It also gave a viability, T/C (second compound 1 µM, first compound 0.0316 µM) of 15.7%, a viability, T/C (second compound 1 µM, first compound 0.1 µM) of 13.8% and a viability, T/C (second compound 3.16 µM, first compound 0.000316 µM) of 1.12%. It also gave a viability, T/C (second compound 3.16 µM, first compound 0.001 µM) of 0.57%, a viability, T/C (second compound 3.16 µM, first compound 0.00316 µM) of 0.82% and a viability, T/C (second compound 3.16 µM, first compound 0.01 µM) of 0.33%. For the same compound, the viability, T/C (second compound 3.16 µM, first compound 0.0316 µM) was 0.47% and the viability, T/C (second compound 3.16 µM, first compound 0.1 µM) was 0.73%.
